Experimental data taken from ChEMBL document CHEMBL1921695, “Cembranolides from the leaves of Croton gratissimus” (J Nat Prod, 2011).
In brackets after ≈: the same amount, converted by molar mass.

System: Plasmodium falciparum
Test: Antiplasmodial activity against chloroquine-sensitive Plasmodium falciparum D10 infected in human erythrocytes after 3 to 4 days by lactate dehydrogenase assay
Format: functional, organism-based

SMILES | IC50 [µg/mL]
C/C1=C\CC[C@](C)(O)/C=C/[C@@H](C(C)C)CCC2=C[C@@H](C1)OC2=O (relative stereo) | 20.8 (≈ 65.3 µM)
C=C1C[C@@H]2C=C(CC[C@](O)(C(C)C)/C=C/[C@@](C)(O)CC[C@H]1OC(C)=O)C(=O)O2 (relative stereo) | 13.5 (≈ 34.4 µM)
